According to patent publication US10266565B2, “Peptide mimetic ligands of polo-like kinase 1 polo box domain and methods of use” (The United States of America, as represented by the …, priority 2011, dated 2019):
“Also recorded” adds a separate entry of the source. *1 amine or outer side, *2 acyl side, *3 side chain or, on linkers, in order; H or OH if unused. Where a SMILES comes first, the peptide text is derived from it. Where no end group is shown, it is not given here. [ ]: non-standard residue; d: D form. Abu(3R-Me,4-PO3H2) = C[C@@H](CP(=O)(O)O)[C@H](N)C(=O)O; X1 = C[C@H]([C@H](N[*:1])C(=O)[*:2])C(F)(F)P(=O)(O)O; pT = C[C@@H](OP(=O)(O)O)[C@H](N)C(=O)O

Key:
Plk1 PBD = Plk1 PBD (Homo sapiens, UniProt P53350); assay: ELISA-based PBD-binding inhibition assay (immobilized biotinylated p-T78 peptide, HA-EGFP-Plk1 lysates); conditions: relative to the comparator named in the sentence
Sequence of Plk1 PBD (P53350 whole entry): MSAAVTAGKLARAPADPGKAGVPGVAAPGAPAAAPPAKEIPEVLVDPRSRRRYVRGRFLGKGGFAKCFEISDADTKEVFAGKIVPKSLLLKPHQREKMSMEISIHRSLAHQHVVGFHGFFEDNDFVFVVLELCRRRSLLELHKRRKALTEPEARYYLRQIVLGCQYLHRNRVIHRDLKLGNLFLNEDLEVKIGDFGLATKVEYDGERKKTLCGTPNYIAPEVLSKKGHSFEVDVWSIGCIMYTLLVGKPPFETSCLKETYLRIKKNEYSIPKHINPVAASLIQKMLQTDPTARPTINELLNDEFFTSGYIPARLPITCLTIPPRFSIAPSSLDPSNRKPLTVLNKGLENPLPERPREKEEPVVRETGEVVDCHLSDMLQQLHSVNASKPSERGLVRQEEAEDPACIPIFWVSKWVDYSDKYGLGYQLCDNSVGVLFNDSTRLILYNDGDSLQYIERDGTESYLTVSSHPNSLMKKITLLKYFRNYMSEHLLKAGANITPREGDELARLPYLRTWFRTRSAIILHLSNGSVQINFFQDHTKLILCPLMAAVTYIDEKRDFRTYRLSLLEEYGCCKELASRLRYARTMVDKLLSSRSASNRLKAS
Description: The wells were washed once with PBS plus 0.05% Tween20 (PBST), and incubated with 200 μl of PBS plus 1% BSA (blocking buffer) for 1 h to prevent non-specific binding. […] Following the incubation, ELISA plates were washed 4 times with PBST. To detect bound HA-EGFP-Plk1, the plates were probed for 2 h with 100 μl/well of anti-HA antibody at a concentration of 0.5 μg/ml in blocking buffer and then washed 5 times. The plates were further probed for 1 h with 100 μl/well of HRP-conjugated secondary antibody (GE Healthcare, Piscataway, N.J.) at a 1:1,000 dilution in blocking buffer. The plates were washed 5 times with PBST and incubated with 100 μl/well of 3,3′,5,5′-tetramethylbenzidine (TMB) solution (Sigma, St. Louis, Mo.) as a substrate until a desired absorbance was reached. […] The optical density (O.D.) was measured at 450 nm by using an ELISA plate reader (Molecular Devices, Sunnyvale, Calif.).
A biotinylated p-T78 peptide was first diluted with IX coating solution (KPL Inc., Gaithersburg, Md.) to a final concentration of 0.3 μM, and then 100 μL of the resulting solution was immobilized onto a 96-well streptavidin-coated plate (Nalgene Nunc, Rochester, N.Y.). […] The plates were washed 5 times with PBST and incubated with 100 μL/well of 3,3′,5,5′-tetramethylbenzidine (TMB) substrate solution (Sigma, St. Louis, Mo.) until a desired absorbance was achieved. […]

Plk1 = target: T1, Plk1 (Homo sapiens, UniProt P53350); assay: Peptide pull-down assay with bead-immobilized peptides, Plk1; type: binding; conditions: mitotic cell lysates
T1 construct: we used total lysates prepared from mitotic HeLa cells; endogenous in cells; host or cells: mitotic (nocodazole-arrested) HeLa cells
T1 sequence (P53350 2-603): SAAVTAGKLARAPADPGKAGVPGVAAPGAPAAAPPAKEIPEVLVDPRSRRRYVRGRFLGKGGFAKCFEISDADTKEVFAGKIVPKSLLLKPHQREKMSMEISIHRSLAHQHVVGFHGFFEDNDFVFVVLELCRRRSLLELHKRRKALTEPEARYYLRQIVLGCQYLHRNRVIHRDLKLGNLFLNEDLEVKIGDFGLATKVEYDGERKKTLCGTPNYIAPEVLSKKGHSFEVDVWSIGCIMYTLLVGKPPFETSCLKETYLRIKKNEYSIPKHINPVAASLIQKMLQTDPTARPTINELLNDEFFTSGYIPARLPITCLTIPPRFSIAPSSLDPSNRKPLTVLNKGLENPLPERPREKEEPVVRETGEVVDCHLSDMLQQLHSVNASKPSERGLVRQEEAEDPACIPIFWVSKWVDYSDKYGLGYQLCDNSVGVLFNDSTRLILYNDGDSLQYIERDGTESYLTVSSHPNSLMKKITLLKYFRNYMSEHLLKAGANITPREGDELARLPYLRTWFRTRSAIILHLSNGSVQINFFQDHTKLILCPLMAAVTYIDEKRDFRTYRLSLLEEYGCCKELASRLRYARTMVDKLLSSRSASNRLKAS
Description: For Plk1 pull-down assays with immobilized peptides, we used total lysates prepared from mitotic HeLa cells. […] Cells treated with 200 ng/ml of nocodazole for 16 h were lysed in TBSN buffer {20 mM Tris-Cl (pH8.0), 150 mM NaCl, 0.5% NP-40, 5 mM EGTA, 1.5 mM EDTA, 0.5 mM Na3VO4, 20 mM p-nitrophenyl phosphate, and protease inhibitor cocktail (Roche, Nutley, N.J.)}, and then clarified by centrifugation at 15,000×g for 20 min at 4° C. The resulting lysates were incubated with bead-immobilized peptides (40 μM per binding) for 2 h, precipitated, washed, and then boiled in sodium dodecyl sulfate (SDS) sample buffer to elute the associated proteins. Samples were separated by 10% SDS-polyacrylamide gel electrophoresis (PAGE), and then either stained with silver or transferred to PVDF membrane for immunoblotting analysis with anti-Plk1 antibody using the enhanced chemiluminescence (ECL) detection system (Pierce). […]

[1] = target: Plk1 PBD-p-Cdc25C interaction (Homo sapiens, UniProt P53350); assay: Competition of the PBD-p-Cdc25C interaction in mitotic HeLa lysates; type: binding; conditions: GST-PBD
Sequence of Plk1 PBD-p-Cdc25C interaction (P53350 326-603 limits assumed): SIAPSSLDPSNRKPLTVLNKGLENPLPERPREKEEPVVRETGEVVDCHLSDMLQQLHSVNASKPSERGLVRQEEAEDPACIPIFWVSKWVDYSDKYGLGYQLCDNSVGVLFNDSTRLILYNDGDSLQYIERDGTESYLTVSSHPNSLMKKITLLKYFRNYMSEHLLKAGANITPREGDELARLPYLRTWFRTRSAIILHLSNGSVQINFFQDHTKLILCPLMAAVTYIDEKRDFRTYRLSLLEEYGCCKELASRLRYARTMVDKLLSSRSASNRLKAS
Description: For p-Cdc25C pull-down assays, either bead-bound GST-PBD or the corresponding GST-PBD(H538A K540M) mutant was incubated with mitotic HeLa lysates in TBSN buffer supplemented with 2 mM DTT. To test the ability of the indicated peptides to compete the PBD-p-Cdc25C interaction, lysates were pre-incubated with GST-PBD for 1.5 h prior to the addition of the indicated peptides. Lysates were then incubated for additional 1.5 h, washed in the binding buffer, and then analyzed. For competition of the interaction between p-Cdc25C and endogenous Plk1, mitotic lysates were prepared in TBSN and incubated with the indicated peptides for 1 h before subjecting to immunoprecipitation with anti-Plk1 antibody.

Plk2 PBD = target: T2, Plk2 PBD (Homo sapiens, UniProt Q9NYY3); assay: Isothermal titration calorimetry with recombinant Plk2 PBD
T2 sequence (Q9NYY3 373-685): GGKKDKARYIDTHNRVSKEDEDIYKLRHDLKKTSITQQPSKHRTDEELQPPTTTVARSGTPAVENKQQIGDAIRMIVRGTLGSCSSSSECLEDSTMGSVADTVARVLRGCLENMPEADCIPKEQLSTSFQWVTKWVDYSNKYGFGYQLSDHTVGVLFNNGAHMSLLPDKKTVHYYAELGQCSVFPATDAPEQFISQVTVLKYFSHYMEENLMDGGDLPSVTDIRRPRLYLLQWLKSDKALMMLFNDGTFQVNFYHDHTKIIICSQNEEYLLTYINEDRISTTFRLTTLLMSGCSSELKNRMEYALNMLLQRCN

Plk2 = target: T3, Plk2 (Mus musculus, UniProt P53351, K108M); assay: Peptide pull-down assay with bead-immobilized peptides, Plk2; type: binding
T3 construct: expressed in transfected cells
T3 sequence (P53351 whole entry K108M): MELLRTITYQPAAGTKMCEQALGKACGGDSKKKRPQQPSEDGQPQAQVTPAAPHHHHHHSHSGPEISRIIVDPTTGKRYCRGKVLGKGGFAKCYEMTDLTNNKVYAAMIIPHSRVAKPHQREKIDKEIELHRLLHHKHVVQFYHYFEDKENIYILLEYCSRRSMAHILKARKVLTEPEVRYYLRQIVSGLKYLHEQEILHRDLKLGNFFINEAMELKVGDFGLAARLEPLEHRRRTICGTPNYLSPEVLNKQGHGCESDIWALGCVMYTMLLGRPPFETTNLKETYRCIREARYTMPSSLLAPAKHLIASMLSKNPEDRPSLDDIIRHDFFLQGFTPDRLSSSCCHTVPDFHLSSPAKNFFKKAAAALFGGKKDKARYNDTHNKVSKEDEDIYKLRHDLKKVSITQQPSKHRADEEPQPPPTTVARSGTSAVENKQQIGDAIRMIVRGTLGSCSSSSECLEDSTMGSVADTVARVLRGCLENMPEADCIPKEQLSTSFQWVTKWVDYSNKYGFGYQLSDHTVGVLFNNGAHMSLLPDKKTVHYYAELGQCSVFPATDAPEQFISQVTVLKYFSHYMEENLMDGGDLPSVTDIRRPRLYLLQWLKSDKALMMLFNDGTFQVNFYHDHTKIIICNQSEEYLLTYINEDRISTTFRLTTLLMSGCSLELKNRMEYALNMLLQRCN
Description: After incubating the cell lysates prepared in TBSN buffer {20 mM Tris-Cl (pH8.0), 150 mM NaCl, 0.5% Np-40, 5 mM EGTA, 1.5 mM EDTA, 20 mM p-nitrophenylphosphate and protease inhibitor cocktail (Roche, Nutley, N.J.)} with the bead-immobilized ligands for 2 h at 4° C., the ligand-associating proteins were precipitated, washed, boiled in sodium dodecyl sulfate (SDS) sample buffer, separated by 8% SDS-polyacrylamide gel electrophoresis (PAGE), and then subjected to immunoblotting analysis with anti-Flag antibody and the enhanced chemilunimescence (ECL) detection system (Pierce). The same membrane was also stained with Coomassies (CBB). Signal intensities were quantified using Image J program.
To investigate the binding specificity of p-T78 peptides to various Plks, Flag-Plk1 (K82M), Flag-Plk2(K108M)3 or Flag-Plk3(K52R) (a gift of Wei Dai, New York University School of Medicine, NY) construct was first transfected into HeLa cells. Cellular lysates were prepared as above, mixed, and then incubated in TBSN buffer with the immobilized peptides indicated.

Plk3 = target: T4, Plk3 (Homo sapiens, UniProt Q9H4B4, K91R); assay: Peptide pull-down assay with bead-immobilized peptides, Plk3; type: binding
T4 construct: expressed in transfected cells; construct a gift of Wei Dai
T4 sequence (Q9H4B4 40-646 K91R limits assumed): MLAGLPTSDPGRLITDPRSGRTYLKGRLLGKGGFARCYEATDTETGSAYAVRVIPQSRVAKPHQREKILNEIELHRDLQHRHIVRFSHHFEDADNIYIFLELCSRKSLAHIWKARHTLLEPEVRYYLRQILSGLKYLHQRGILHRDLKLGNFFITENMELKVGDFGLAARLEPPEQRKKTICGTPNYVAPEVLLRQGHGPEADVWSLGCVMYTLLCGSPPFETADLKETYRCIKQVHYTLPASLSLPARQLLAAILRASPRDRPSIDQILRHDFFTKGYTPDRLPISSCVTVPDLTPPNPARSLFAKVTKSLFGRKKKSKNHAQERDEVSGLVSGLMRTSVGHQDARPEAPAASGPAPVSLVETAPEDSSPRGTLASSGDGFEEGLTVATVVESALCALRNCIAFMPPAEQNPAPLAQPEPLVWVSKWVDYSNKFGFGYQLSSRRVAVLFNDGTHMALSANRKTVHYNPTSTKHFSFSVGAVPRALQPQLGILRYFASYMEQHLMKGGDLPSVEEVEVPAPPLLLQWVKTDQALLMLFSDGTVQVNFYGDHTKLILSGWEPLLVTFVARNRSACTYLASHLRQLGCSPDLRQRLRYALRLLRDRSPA

HeLa cells [2] = assay: Direct treatment of cultured HeLa cells (mitotic arrest, apoptotic cell death, Plk1 localization); type: cell-based; conditions: 200 μM
HeLa cells [3] = conditions: Yun et al. 2009; cited from earlier work
[4] = Toxicity in cell-based experiments
[5] = target: T5, recombinant Plk2 PBD (residues 373 to 685) (human) (UniProt Q9NYY3); assay: ITC; saturable binding not observed
T5 sequence (looked up): T2 sequence (Q9NYY3 373-685)

Flag-Plk2 (K108M) [6] = target: Flag-Plk2 (K108M) (UniProt Q9NYY3); assay: pull-down with bead-immobilized peptide, mixed Flag-Plk1/2/3 lysates (HeLa)
[7] = target: T5, recombinant Plk2 PBD (residues 373 to 685) (human); assay: ITC
Flag-Plk2 (K108M) [8] = target: Flag-Plk2 (K108M) (UniProt Q9NYY3); assay: assay not stated at this place (peptide pull-down by paragraph 548)
Flag-Plk1 (K82M) = Flag-Plk1 (K82M) (UniProt P53350 1-603); assay: pull-down with bead-immobilized peptide, mitotic HeLa lysate
Sequence of Flag-Plk1 (K82M) (P53350 whole entry K82M): as the sequence (P53350 whole entry) above, with K82M counted along it

HA-EGFP-Plk1 [9] = target: T6, HA-EGFP-Plk1 (UniProt P53350 1-603); assay: competition ELISA, HA-EGFP-Plk1 lysate on immobilized biotin p-T78 9-mer
T6 construct: In lysates of mitotic 293A cells infected with adenovirus expressing HA-EGFP-Plk1
T6 sequence (P53350 whole entry): as the sequence (P53350 whole entry) above

HA-EGFP-Plk1 [10] = target: T6, HA-EGFP-Plk1; assay: ELISA-based PBD-binding inhibition assay: peptide as competitor of the immobilized biotinylated 9-mer p-T78 peptide for HA-EGFP-Plk1 in mitotic 293A cell lysate; bound Plk1 detected with anti-HA, OD 450 nm

CC(=O)N[C@@H](CC(C)C)C(=O)N[C@@H](Cc1c[nH]cn1)C(=O)N[C@@H](CO)C(=O)N[C@H](C(=O)N[C@@H](C)C(N)=O)[C@@H](C)OP(=O)(O)O [LHSpTA]
Plk1 PBD-binding affinity / inhibition, in words (Plk1 PBD): inhibited the PBD at a moderately reduced level | Plk1 binding / precipitation in pull-down, in words (Plk1): bound to Plk1 almost as efficiently as PLHSpT | disruption of the pre-formed PBD-p-Cdc25C complex [1]: disrupted the pre-formed PBD-p-Cdc25C complex nearly as efficiently as PLHSpT | interaction with Plk2 PBD by calorimetry, in words (Plk2 PBD): virtually no interactions with Plk2

COCCOCCOCCOCCOCCOCCOCCOCCC(=O)N1CCC[C@H]1C(=O)N[C@@H](CC(C)C)C(=O)N[C@@H](Cc1cncn1CCCCCCCCc1ccccc1)C(=O)N[C@@H](CO)C(=O)N[C@H](C(N)=O)[C@@H](C)CP(=O)(O)O [PEG-4j*]
Plk2 binding / precipitation in pull-down, in words (Plk2): failed to significantly interact | Plk3 binding / precipitation in pull-down, in words (Plk3): failed to significantly interact | Plk1 delocalization and misaligned chromosomes (HeLa cells [2]): drastic Plk1 delocalization from centrosomes and kinetochores, and severe misaligned chromosomes | mitotic arrest / apoptotic cell death / cellular response (HeLa cells [2]): effectively induced mitotic arrest and apoptotic cell death

CC(=O)N1CCC[C@H]1C(=O)N[C@@H](CC(C)C)C(=O)N[C@@H](Cc1c[nH]cn1)C(=O)N[C@@H](CO)C(=O)N[C@H](C(N)=O)[C@@H](C)OP(=O)(O)O [compound 1, PLHSpT]
mitotic arrest / apoptotic cell death / cellular response (HeLa cells [2]): failed to elicit a detectable cellular response; also recorded: failed to generate a detectable level of cellular effect | Plk1 localization and apoptotic cell death after microinjection (HeLa cells [3]): interferes with proper subcellular localization of Plk1 and induces apoptotic cell death

CC(=O)N1CCC[C@H]1C(=O)N[C@@H](CC(C)C)C(=O)N[C@@H](Cc1c[nH]cn1)C(=O)N[C@@H](CO)C(=O)N[C@H](C(=O)N[C@@H](C)C(N)=O)[C@@H](C)C(F)(F)P(=O)(O)O [compound 25, PLHS-F2Pmab-A] (Ac-PLHS[X1]A-NH2)
toxicity [4]: significant toxicity

B1: MQSpTPL (peptide)
peptide: MQS[pT]PL
initial heats of interaction [5]: -1.68 kcal/mol | efficiency of precipitation relative to Plk1 (Flag-Plk2 (K108M) [6]): 27%

B2: PLQSpT (peptide)
peptide: PLQS[pT]
initial heats of interaction [7]: -1.1 kcal/mol | fold increase of Plk2 binding (Flag-Plk2 (K108M) [8]): 24 fold

B3: PLHA-Pmab (peptide)
peptide: PLHA[Abu(3R-Me,4-PO3H2)]
notes: also called 24; Pmab(S77A)
binding result (Flag-Plk1 (K82M)): no binding | fold higher molar concentration without inhibition (HA-EGFP-Plk1 [9]): > 1000 fold | binding result (HA-EGFP-Plk1 [10]): no binding (tested: 300 µM)
